Assay [1] has as its system MC38 mouse colon adenocarcinoma cells. Put plainly: MC38 colon adenocarcinoma challenge, survival and rechallenge (FIG. 6-8). In kind it is in vivo, mice. The conditions noted are these: peptide in combination with anti-PD-1 monoclonal antibody. An excerpt:
Enhancement was also found of the efficacy of anti-PD-1 therapy in a mouse colon cancer model by coadministration of a cyclic peptide as described herein. A typical protocol for identifying or characterizing effective analogs of naturally occurring cyclic peptides or effective naturally occurring cyclic peptides is shown in FIG. 6.
Mice were challenged with MC38 mouse colon adenocarcinoma cells and treated with peptide 1 (SEQ ID NO. 1), peptide 2 (SEQ ID NO. 2), or peptide 3 (SEQ ID NO. 3) alone, peptide 1 (SEQ ID NO. 1), peptide 2 (SEQ ID NO. 2), or peptide 3 (SEQ ID NO. 3) in combination with an anti-PD-1 monoclonal antibody, or with the anti-PD-1 monoclonal antibody alone.
Such combination therapy provided an effect that exceeds the summation of effects provided by anti-PD1 or the cyclic peptide as monotherapies. […] Use of cyclic peptides in combination anti-PD-1 ICI also effectively immunized mice to rechallenge with MC38 colon cancer cells. As shown in the upper panel of FIG. 8, MC38 cells formed tumors in naïve control mice.

Assay [2] has as its system myeloid-derived suppressor cells (MDSCs) in MC38 colon adenocarcinoma tumors. Put plainly: MDSC infiltration into tumor microenvironment, MC38 tumors, FACS. In kind it is in vivo, C57BL/6 mice. The conditions noted are these: 4 doses cyclic peptide 0.1 mg/kg alone; tumors harvested day 13. The protocol:
C57BL/6 mice were implanted subcutaneously with 5×10^6 MC38 colon adenocarcinoma cells, and subsequently treated with 4 doses of the indicated cyclic peptide (0.1 mg/kg), 4 doses of the indicated a cyclic peptide with 3 doses of an anti-PD-1 monoclonal antibody (1 mg/kg), or saline (control). Tumors were harvested at day 13 and the percent of myeloid-derived suppressor cells (MDSCs) was quantified by FACS.

No end group written: not given here.

The results in this text go back to patent US20240293507A1, “Methods for Enhancing Immune Checkpoint Inhibitor Therapy” (The University of Southern California, priority 2021, published 2024).

In the case of “peptide 3: cyclic peptide, θ-defensin analog, sequence CICRRRFCLCRRGA (not fully specified (bridges); also: cyclic, kind not given here)”, in assay [1], the survival entry is “potentiated the effect of the anti-PD-1 monoclonal antibody”. Also, in assay [2], the “percentage of MDSCs within the tumor microenvironment” value was “significant activity in reducing the percentage of MDSCs”.
